How the values were obtained:
non-transformed cotton = settings: rates much lower than the lowest rate tested (1120 g ae/ha); known; cited from earlier work
[1] = system: cotton event pDAB4468.19.10.3; assay: Tolerance to 2,4-D in field trials (percent visual injury); format: in vivo, Gossypium hirsutum; settings: for Percent visual injury: single post-emergence application, 2-4 leaf
Method: The tolerance of cotton event pDAB4468.19.10.3 to post-emergence applications of the phenoxyacetic acid herbicide, 2,4-D, was studied in field trials during the 2010 growing season. Herbicide tolerance was assessed following a single post-emergence application of 2,4-D applied to 2-4 leaf cotton event pDAB4468.19.10.3. The application of 2,4-D on cotton plants at this stage of development represents a herbicide application timing typically utilized to achieve satisfactory weed control by cotton growers.
2,4-D tolerance was measured by assessing cotton plants for injury at 0-1 day after application (DAA), 7-8 DAA, 12-16 DAA, and 24-32 DAA. Measurements for the 0-1 day time increment were taken from 6-24 hours after the application. Injury was assessed by assigning a percent visual injury rating using a linear percentage scale (1-100%) where 0% represents no visible herbicide injury and 100% represents plant death. The ratings were a composite score for any herbicide symptomology including epinasty, chlorosis, leaf necrosis and plant death. Herbicide symptomology present at 0-1 DAA was primarily epinasty and symptoms at later evaluations were primarily chlorosis and necrosis.
(§1) Field trials were conducted at eleven locations across the United States in typical cotton producing areas of Alabama, Arkansas, California, Georgia, Louisiana, Mississippi, North Carolina, South Carolina, and Tennessee. Trials were designed with four replications per treatment. Each replication was separated by a bare-soil alley 10-15 feet wide. Plot size for individual treatments was 2 rows by 20 feet long with rows typically spaced 36-40 inches apart. Experimental treatments consisted of cotton event pDAB4468.19.10.3 sprayed with 2,4-D amine (Weedar 64™, NuFarm, Burr Ridge, Ill.) at either 0, 1120, 2240, or 4480 grams acid equivalent per hectare (g ae/ha) applied in 15 gallons per acre of final spray solution. A non-transformed cotton comparator treatment was not included in these experiments since treatment with 2,4-D at rates much lower than the lowest rate tested (1120 g ae/ha) are known to result in plant death.

[2] = system: cotton event pDAB4468.19.10.3; assay: Agronomic characterization in field trials with and without herbicide applications; format: in vivo, Gossypium hirsutum; settings: sprayed vs unsprayed event plants; standard field application rates
Source text: The agronomic characteristics of cotton event pDAB4468.19.10.3 were quantified in field trials conducted across geographically different locations throughout the cotton belt in 2010. These studies compared the agronomic performance of cotton event pDAB4468.19.10.3 (with and without applications of the herbicides 2,4-D and glufosinate) to the non-transgenic near-isoline control, Coker 310. No agronomically meaningful unintended differences were observed between cotton event pDAB4468.19.10.3 and the Coker 310 control plants. […] Additionally, the agronomic performance of cotton event pDAB4468.19.10.3 was not altered as a result of the application of the herbicides, 2,4-D and glufosinate, as compared to the cotton event pDAB4468.19.10.3 plants which were not sprayed with the herbicide treatments. […]
Seeds of cotton event pDAB4468.19.10.3 and seeds of the near-isoline control line, Coker 310, were planted at a rate of 80 seeds per 20 ft row with a row spacing of 34-38 inches (86.36 cm-96.52 cm). […] The measured agronomic characteristics were equivalent for cotton event pDAB4468.19.10.3 as compared to the Coker 310 near-isoline control plants for all of the agronomic characteristics measured and statistically analyzed. […]

[3] = system: cotton event pDAB4468.19.10.3; assay: Tolerance to glufosinate in field trials (percent visual injury); format: in vivo, Gossypium hirsutum; settings: for Percent visual injury: single post-emergence application, 6-8 leaf
Method: The tolerance of cotton event pDAB4468.19.10.3 to post-emergence applications of glufosinate was studied in field trials during the 2010 growing season. Herbicide tolerance was assessed following a single post-emergence application of glufosinate applied to 6-8 leaf cotton event pDAB4468.19.10.3, which represents a herbicide application timing typically utilized with glufosinate to achieve satisfactory weed control.
Glufosinate tolerance was measured by assessing cotton plants for injury at 2-4 days after application (DAA), 7-9 DAA, 13-19 DAA and 22-29 DAA. Injury was assessed by assigning a percent visual injury rating using a linear percentage scale (1-100) where 0% represents no visible herbicide injury and 100% represents plant death. The ratings were a composite score for any herbicide symptomology including chlorosis, leaf necrosis, stunting and plant death. Herbicide symptomology (where present) was primarily chlorosis and necrosis.
as §1, with “glufosinate ammonium (Ignite 280 SL™, Bayer, Research Triangle, N.C.)” for “2,4-D amine (Weedar 64™, NuFarm, Burr Ridge, Ill.)”, “542, 1084,” for “1120, 2240,”, “2168” for “4480”, “glufosinate” for “2,4-D”, “(542” for “(1120”, “would be expected” for “are known”

SMILES: O=C(O)COc1ccc(Cl)cc1Cl [2,4-D]
- result of treatment of non-transformed cotton (non-transformed cotton): plant death
- herbicide injury noted in the field experiments ([1]; 1120-4480 g ae/ha, with the exception of transient epinasty 0-1 DAA): no agronomically-significant herbicide injury
- Percent visual injury ([1]; 1120 g ae/ha, 0-1 DAA): 3.6%
- Percent visual injury ([1]; 1120 g ae/ha, 7-8 DAA): 1.4%
- Percent visual injury ([1]; 1120 g ae/ha, 12-16 DAA): 0.6%
- Percent visual injury ([1]; 1120 g ae/ha, 24-32 DAA): 0.0%
- Percent visual injury ([1]; 2240 g ae/ha, 0-1 DAA): 11.8%
- Percent visual injury ([1]; 2240 g ae/ha, 7-8 DAA): 3.5%
- Percent visual injury ([1]; 2240 g ae/ha, 12-16 DAA): 2.7%
- Percent visual injury ([1]; 2240 g ae/ha, 24-32 DAA): 0.1%
- crop injury beyond the 7-8 DAA evaluation interval ([1]; 4480 g ae/ha (>4x rate required for weed control)): little crop injury
- Percent visual injury ([1]; 4480 g ae/ha, 0-1 DAA): 19.4%
- Percent visual injury ([1]; 4480 g ae/ha, 7-8 DAA): 11.0%
- Percent visual injury ([1]; 4480 g ae/ha, 12-16 DAA): 5.9%
- Percent visual injury ([1]; 4480 g ae/ha, 24-32 DAA): 0.6%
- agronomic performance of the event as a result of herbicide application [2]: not altered

SMILES: CP(=O)(O)CCC(N)C(=O)O (stereo not shown) [glufosinate]
- agronomic performance of the event as a result of herbicide application [2]: not altered
- herbicide injury noted in the field experiments ([3]; 542-2168 g ae/ha, with the exception of transient chlorosis at 2168 g ae/ha at 2-4 & 7-9 DAA): no agronomically significant herbicide injury
- Percent visual injury ([3]; 542 g ae/ha, 2-4 DAA): 2.7%
- Percent visual injury ([3]; 542 g ae/ha, 7-9 DAA): 1.9%
- Percent visual injury ([3]; 542 g ae/ha, 13-19 DAA): 0.1%
- Percent visual injury ([3]; 542 g ae/ha, 22-29 DAA): 0.0%
- Percent visual injury ([3]; 1084 g ae/ha, 2-4 DAA): 6.6%
- Percent visual injury ([3]; 1084 g ae/ha, 7-9 DAA): 4.0%
- Percent visual injury ([3]; 1084 g ae/ha, 13-19 DAA): 0.2%
- Percent visual injury ([3]; 1084 g ae/ha, 22-29 DAA): 0.0%
- crop injury beyond the 7-9 DAA evaluation interval ([3]; 2168 g ae/ha (>4x rate required for weed control)): little crop injury
- Percent visual injury ([3]; 2168 g ae/ha, 2-4 DAA): 13.5%
- Percent visual injury ([3]; 2168 g ae/ha, 7-9 DAA): 10.0%
- Percent visual injury ([3]; 2168 g ae/ha, 13-19 DAA): 2.3%
- Percent visual injury ([3]; 2168 g ae/ha, 22-29 DAA): 0.3%
